Source: US9795140B2, “Molecules having pesticidal utility, and intermediates, compositions, and processes, related thereto” (priority 2015, dated 2017)

Experiments:
Type in all cases: in vivo
[1] = system: Yellow Fever Mosquito (Aedes aegypti, AEDSAE); assay: Bioassay on Yellow Fever Mosquito (YFM) larvae, 96-well plate; settings: about 1 day-old larvae, room temperature, 3 days, scored on mortality
Description: Certain molecules disclosed in this document were tested against YFM using procedures described in the following paragraph. In the reporting of the results, the “GPA & YFM Rating Table” was used (See Table Section).
Master plates containing 400 μg of a molecule dissolved in 100 μL of dimethyl sulfoxide (DMSO) (equivalent to a 4000 ppm solution) are used. A master plate of assembled molecules contains 15 μL per well. To this plate, 135 μL of a 90:10 water/acetone mixture is added to each well. A robot is programmed to dispense 15 μL aspirations from the master plate into an empty 96-well shallow plate (“daughter” plate). There are 6 reps (“daughter” plates) created per master. The created “daughter” plates are then immediately infested with YFM larvae.
The day before plates are to be treated, mosquito eggs are placed in Millipore water containing liver powder to begin hatching (4 g. into 400 mL). After the “daughter” plates are created using the robot, they are infested with 220 μL of the liver powder/larval mosquito mixture (about 1 day-old larvae). After plates are infested with mosquito larvae, a non-evaporative lid is used to cover the plate to reduce drying. Plates are held at room temperature for 3 days prior to grading. After 3 days, each well is observed and scored based on mortality. The results are indicated in the table entitled “Table ABC: Biological Results” (See Table Section).

[2] = system: Cabbage Looper (Trichoplusia ni, TRIPNI); assay: Bioassay on Cabbage Looper (CL), 128-well diet tray assay; settings: 168 h, 50 μg/cm^2 on artificial diet, second instar larvae, 25° C., five to seven days, average of eight wells, read-out: CL % Control (or Mortality) rating
Description: (§1) Certain molecules disclosed in this document were tested against BAW and CL using procedures described in the following examples. In the reporting of the results, the “BAW & CL Rating Table” was used (See Table Section).
Bioassays on CL were conducted using a 128-well diet tray assay, one to five second instar CL larvae were placed in each well (3 mL) of the diet tray that had been previously filled with 1 mL of artificial diet to which 50 μg/cm^2 of the test molecule (dissolved in 50 μL of 90:10 acetone-water mixture) had been applied (to each of eight wells) and then allowed to dry. Trays were covered with a clear self-adhesive cover, vented to allow gas exchange, and held at 25° C., 14:10 light-dark for five to seven days. Percent mortality was recorded for the larvae in each well; activity in the eight wells was then averaged. The results are indicated in the table entitled “Table ABC: Biological Results” (See Table Section).

[3] = system: Beet Armyworm (Spodoptera exigua, LAPHEG); assay: Bioassay on Beet Armyworm (BAW), 128-well diet tray assay; settings: 168 h, 50 μg/cm^2 on artificial diet, second instar larvae, 25° C., five to seven days, average of eight wells, read-out: BAW % Control (or Mortality) rating
Description: as §1
Bioassays on BAW were conducted using a 128-well diet tray assay. One to five second instar BAW larvae were placed in each well (3 mL) of the diet tray that had been previously filled with approximately 1.5 mL of artificial diet to which 50 μg/cm^2 of the test molecule (dissolved in 50 μL of 90:10 acetone-water mixture) had been applied (to each of eight wells) and then allowed to dry. Trays were covered with a clear self-adhesive cover, vented to allow gas exchange, and held at 25° C., 14:10 light-dark for five to seven days. Percent mortality was recorded for the larvae in each well; activity in the eight wells was then averaged. The results are indicated in the table entitled “Table ABC: Biological Results” (See Table Section).

Structure (SMILES)	YFM % Control (or Mortality) rating [1]	mortality at 50 µg/cm2 [2]	mortality at 50 µg/cm2 [3]
O=C(NCCCCl)c1cc(NC(=O)[C@H]2[C@H](c3cc(Cl)cc(Cl)c3)C2(Cl)Cl)ccc1Cl (relative stereo) [F57, trans-2-Chloro-N-(3-chloropropyl)-5-(2,2-dichloro-3-(3,5-dichlorophenyl)cyclopropane-1-carboxamido)benzamide]	D (No activity noticed in this bioassay)	50 to 100%	50 to 100%
COCCOCCCNC(=O)c1cc(NC(=O)[C@H]2[C@H](c3cc(Cl)cc(Cl)c3)C2(Cl)Cl)ccc1Cl (relative stereo) [F58, trans-2-Chloro-5-(2,2-dichloro-3-(3,5-dichlorophenyl)cyclopropane-1-carboxamido)-N-(3-(2-methoxyethoxy)propyl)benzamide]	A (80-100)	50 to 100%	50 to 100%
O=C(NCCC(F)(F)C(F)(F)F)c1cc(NC(=O)[C@H]2[C@H](c3cc(Cl)cc(Cl)c3)C2(Cl)Cl)ccc1Cl (relative stereo) [F60, trans-2-Chloro-5-(2,2-dichloro-3-(3,5-dichlorophenyl)cyclopropane-1-carboxamido)-N-(3,3,4,4,4-pentafluorobutyl)benzamide]	D (No activity noticed in this bioassay)	50 to 100%	50 to 100%
O=C(NCC(F)(F)C(F)(F)C(F)(F)F)c1cc(NC(=O)[C@H]2[C@H](c3cc(Cl)cc(Cl)c3)C2(Cl)Cl)ccc1Cl (relative stereo) [F61, trans-2-Chloro-5-(2,2-dichloro-3-(3,5-dichlorophenyl)cyclopropane-1-carboxamido)-N-(2,2,3,3,4,4,4-heptafluorobutyl)benzamide]	D (No activity noticed in this bioassay)	50 to 100%	50 to 100%
CCCN(C)C(=O)c1cc(NC(=O)[C@H]2[C@H](c3cc(Cl)cc(Cl)c3)C2(Cl)Cl)ccc1Cl (relative stereo) [F62, trans-2-Chloro-5-(2,2-dichloro-3-(3,5-dichlorophenyl)cyclopropane-1-carboxamido)-N-methyl-N-propylbenzamide]	D (No activity noticed in this bioassay)	50 to 100%	50 to 100%
CCN(C)C(=O)c1cc(NC(=O)[C@H]2[C@H](c3cc(Cl)cc(Cl)c3)C2(Cl)Cl)ccc1Cl (relative stereo) [F63, trans-2-Chloro-5-(2,2-dichloro-3-(3,5-dichlorophenyl)cyclopropane-1-carboxamido)-N-ethyl-N-methylbenzamide]	D (No activity noticed in this bioassay)	50 to 100%	50 to 100%
CN(CCC(F)(F)F)C(=O)c1cc(NC(=O)[C@H]2[C@H](c3cc(Cl)cc(Cl)c3)C2(Cl)Cl)ccc1Cl (relative stereo) [F64, trans-2-Chloro-5-(2,2-dichloro-3-(3,5-dichlorophenyl)cyclopropane-1-carboxamido)-N-methyl-N-(3,3,3-trifluoropropyl)benzamide]	D (No activity noticed in this bioassay)	50 to 100%	50 to 100%
COCCN(C)C(=O)c1cc(NC(=O)[C@H]2[C@H](c3cc(Cl)cc(Cl)c3)C2(Cl)Cl)ccc1Cl (relative stereo) [F67, trans-2-Chloro-5-(2,2-dichloro-3-(3,5-dichlorophenyl)cyclopropane-1-carboxamido)-N-(2-methoxyethyl)-N-methylbenzamide]	D (No activity noticed in this bioassay)	50 to 100%	50 to 100%
CSCCN(C)C(=O)c1cc(NC(=O)[C@H]2[C@H](c3cc(Cl)cc(Cl)c3)C2(Cl)Cl)ccc1Cl (relative stereo) [F68, trans-2-Chloro-5-(2,2-dichloro-3-(3,5-dichlorophenyl)cyclopropane-1-carboxamido)-N-methyl-N-(2-(methylthio)ethyl)benzamide]	D (No activity noticed in this bioassay)	50 to 100%	50 to 100%
CN(CC1CC1)C(=O)c1cc(NC(=O)[C@H]2[C@H](c3cc(Cl)cc(Cl)c3)C2(Cl)Cl)ccc1Cl (relative stereo) [F69, trans-2-Chloro-N-(cyclopropylmethyl)-5-(2,2-dichloro-3-(3,5-dichlorophenyl)cyclopropane-1-carboxamido)-N-methylbenzamide]	D (No activity noticed in this bioassay)	50 to 100%	50 to 100%
O=C(NCC1CC(F)(F)C1)c1cc(NC(=O)[C@H]2[C@H](c3cc(Cl)cc(Cl)c3)C2(Cl)Cl)ccc1Cl (relative stereo) [F70, trans-2-Chloro-5-(2,2-dichloro-3-(3,5-dichlorophenyl)cyclopropane-1-carboxamido)-N-((3,3-difluorocyclobutyl)methyl)benzamide]	D (No activity noticed in this bioassay)	50 to 100%	50 to 100%
O=C(Nc1ccc(Cl)c(C(=O)N2CCC(F)(F)C2)c1)[C@H]1[C@H](c2cc(Cl)cc(Cl)c2)C1(Cl)Cl (relative stereo) [F71, trans-2,2-Dichloro-N-(4-chloro-3-(3,3-difluoropyrrolidine-1-carbonyl)phenyl)-3-(3,5-dichlorophenyl)cyclopropane-1-carboxamide]	D (No activity noticed in this bioassay)	50 to 100%	50 to 100%
O=C(NCCCC(F)(F)F)c1cc(NC(=O)[C@H]2[C@H](c3cc(Cl)cc(Cl)c3)C2(Cl)Cl)ccc1Cl (relative stereo) [F72, trans-2-Chloro-5-(2,2-dichloro-3-(3,5-dichlorophenyl)cyclopropane-1-carboxamido)-N-(4,4,4-trifluorobutyl)benzamide]	A (80-100)	50 to 100%	50 to 100%
CN(CC1CC(F)(F)C1)C(=O)c1cc(NC(=O)[C@H]2[C@H](c3cc(Cl)cc(Cl)c3)C2(Cl)Cl)ccc1Cl (relative stereo) [F73, trans-2-Chloro-5-(2,2-dichloro-3-(3,5-dichlorophenyl)cyclopropane-1-carboxamido)-N-((3,3-difluorocyclobutyl)methyl)-N-methylbenzamide]	A (80-100)	50 to 100%	50 to 100%
CC(O)CNC(=O)c1cc(NC(=O)[C@H]2[C@H](c3cc(Cl)cc(Cl)c3)C2(Cl)Cl)ccc1Cl (relative stereo) [F78, trans-2-Chloro-5-(2,2-dichloro-3-(3,5-dichlorophenyl)cyclopropane-1-carboxamido)-N-(2-hydroxypropyl)benzamide]	A (80-100)	50 to 100%	50 to 100%
O=C(NCCN1CCNC1=O)c1cc(NC(=O)[C@H]2[C@H](c3cc(Cl)cc(Cl)c3)C2(Cl)Cl)ccc1Cl (relative stereo) [F79, trans-2-Chloro-5-(2,2-dichloro-3-(3,5-dichlorophenyl)cyclopropane-1-carboxamido)-N-(2-(2-oxoimidazolidin-1-yl)ethyl)benzamide]	A (80-100)	50 to 100%	50 to 100%
CCCNC(=O)c1cc(NC(=O)[C@H]2[C@H](c3cc(Cl)c(OC)c(Cl)c3)C2(Cl)Cl)ccc1Cl (relative stereo) [F84, trans-2-Chloro-5-(2,2-dichloro-3-(3,5-dichloro-4-methoxyphenyl)cyclopropane-1-carboxamido)-N-propylbenzamide]	D (No activity noticed in this bioassay)	50 to 100%	50 to 100%
